# According to patent US9624238B2, “4H-thieno[3,2-C]chromene-based inhibitors of Notum Pectinacetylesterase and methods of their use” (Lexicon Pharmaceuticals, Inc., priority 2011, dated 2017):
# Tests used:
# [1] = target: T1, human notum pectinacetyltransferase (Homo sapiens, UniProt Q6P988); assay: Binding assay (OPTS esterase substrate, fluorimetric); assay type: biochemical
# T1 construct: made in house; unpurified conditioned medium used
# T1 sequence (Q6P988 20-496): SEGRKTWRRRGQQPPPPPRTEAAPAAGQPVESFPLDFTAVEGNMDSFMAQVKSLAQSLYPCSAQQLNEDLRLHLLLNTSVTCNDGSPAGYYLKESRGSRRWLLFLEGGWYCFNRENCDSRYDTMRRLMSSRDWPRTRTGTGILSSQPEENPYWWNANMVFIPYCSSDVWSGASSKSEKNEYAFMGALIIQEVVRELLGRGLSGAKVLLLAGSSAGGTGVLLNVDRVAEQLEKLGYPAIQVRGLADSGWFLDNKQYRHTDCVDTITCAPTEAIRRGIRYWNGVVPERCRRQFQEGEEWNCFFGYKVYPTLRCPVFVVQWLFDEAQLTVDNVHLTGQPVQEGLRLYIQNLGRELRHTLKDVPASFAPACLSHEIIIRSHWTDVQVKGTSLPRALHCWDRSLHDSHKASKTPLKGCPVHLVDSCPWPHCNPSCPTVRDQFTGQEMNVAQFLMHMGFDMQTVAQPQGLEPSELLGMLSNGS
# Protocol: Plasmid containing human notum pectinacetyltransferase in pcDNA3.1(+) vector was transfected into HEK (293 cells and clones were selecting by growing in presence of 400 ug/mL of G418. Condition media from these cells was used for the assay.
# [2] = target: T1, human notum pectinacetyltransferase; assay: Reporter assay (CellSensor LEF/TCF-bla FreeStyle 293F cells, Wnt3a and notum conditioned media); assay type: cell-based; details: class symbols
# Protocol: Plasmid containing human notum pectinacetyltransferase in pcDNA3.1(+) vector was transfected into HEK (293 cells and clones were selecting by growing in presence of 400 ug/mL of G418. The clone containing highest expression of human notum pectinacetyltransferase in the conditioned media was maintained for all future activity assays. L cells overexpressing and secreting Wnt3a into the conditioned media were purchased from ATCC.
# The assay protocol was as follows. […] The cell growth medium consisted of DMEM with 10% Dialyzed FBS, 5 μg/ml Blasticidin (Invitrogen, R210-01), 0.1 mM NEAA, 25 mM HEPES and 1×GPS. Cells were then trypsinized by first rinsing with PBS, followed by addition of 5 mL of trypsin and incubation of plates at room temperature for two minutes. A total of 10 mL of assay media (Opti-MEM, plus 0.5% dialyzed FBS, 0.1 mM NEAA, 1 mM sodium pyruvate, 10 mM HEPES, 1×GPS) was then added per 15 cm plate. Cells were counted and suspended at 0.75 million cells per mL. […] After incubation of cells at 37° C. for 3 hours, 10 μL of 30 mM LiCl in assay medium was added per well, followed by incubation at 37° C. for another 3 hours. […] Ten μL of the Wnt3a/notum pentinacetyltransferase mixture was then transferred from Greiner plates to each well of the 384-well plates containing the CellSensor cells.
# [3] = given as numeric bound above the legend's highest class
# [4] = given as a numeric bound above the legend's range
"IC50 [1, 3] [nM]",IC50 ([1]; class symbols) [nM],Structure (SMILES),other results
> 2000,–,Cc1cc2c(cc1C)-c1sc(C(=O)O)cc1CS2,–
–,< 2000,Cc1cc2c(cc1C)-c1sc(C(=O)O)cc1CC2,–
–,< 2000,Cc1cc2c(cc1C)-c1sc(C(N)=O)cc1CC2,–
–,< 2000,O=C(O)c1cc2c(s1)-c1c(F)cc(F)cc1OC2,–
–,< 1000,O=C(O)c1cc2c(s1)-c1c(F)cc(F)cc1SC2,–
–,–,CC1(C)Cc2cc(C(=O)O)sc2-c2cc(Br)ccc21,"IC50 [1, 4]: > 2000 nM"
–,< 1000,NC(=O)c1cc2c(s1)-c1cc(Br)cc(Cl)c1OC2,EC50 [2]: < 50 nM
–,< 50,O=C(O)c1cc2c(s1)-c1cc(Br)cc(Cl)c1OC2,EC50 [2]: < 50 nM
> 2000,–,NC(=O)c1cc(F)c2c(c1)-c1sc(C(=O)O)cc1CO2,–
–,< 1000,NC(=O)c1cc2c(s1)-c1cc(Cl)ccc1OC2,–
–,< 2000,O=C(O)c1cc2c(s1)-c1cc(Cl)ccc1SC2,–
–,< 100,NC(=O)c1cc2c(s1)-c1cc(Cl)cc(F)c1OC2,EC50 [2]: < 50 nM
> 2000,–,N#Cc1ccc2c(c1)-c1sc(C(=O)O)cc1CO2,–
–,< 1000,N#Cc1cc(F)c2c(c1)-c1sc(C(=O)O)cc1CO2,–
–,< 1000,CC1Oc2ccc(F)cc2-c2sc(C(=O)O)cc21 (stereo not drawn),–
> 2000,–,COc1ccc2c(c1)-c1sc(C(=O)O)cc1CO2,–
–,< 1000,Cc1ccc2c(c1)-c1sc(C(=O)O)cc1CO2,EC50 [2]: < 50 nM
–,–,Cc1ccc2c(c1)-c1sc(C(=O)O)cc1CS2,"IC50 [1, 4]: > 2000 nM"
–,< 2000,Cc1ccc2c(c1C)-c1sc(C(=O)O)cc1CC2,–
–,< 1000,Cc1ccc2c(c1C)-c1sc(C(N)=O)cc1CC2,–
–,< 1000,O=C(O)c1cc2c(s1)-c1c(cccc1C(F)(F)F)OC2,EC50 [2]: < 50 nM
–,< 50,NC(=O)c1cc2c(s1)-c1c(cccc1C(F)(F)F)OC2,EC50 [2]: < 50 nM
> 2000,–,O=C(O)c1cc2c(s1)-c1c(Br)cccc1CC2,–
> 2000,–,N#Cc1cccc2c1-c1sc(C(=O)O)cc1CC2,–

"IC50 [1, 3] [nM]",IC50 ([1]; class symbols) [nM],Structure (SMILES),other results
–,–,Cc1cccc2c1-c1sc(C(=O)O)cc1CO2,"IC50 [1, 4]: > 2000 nM"
–,< 1000,COc1ccc2c(c1Cl)CCc1cc(C(=O)NCCc3nnn[nH]3)sc1-2,EC50 [2]: < 50 nM
–,< 1000,O=C(NCCc1nnn[nH]1)c1cc2c(s1)-c1cccc(F)c1CC2,EC50 [2]: < 50 nM
> 2000,–,CN(C)CCNC(=O)c1cc2c(s1)-c1ccccc1CC2,–
–,< 100,N#CCCNC(=O)c1cc2c(s1)-c1cccc(F)c1CC2,EC50 [2]: < 100 nM
> 2000,–,O=C(NCCN1CCOCC1)c1cc2c(s1)-c1ccccc1CC2,–
> 2000,–,CS(=O)(=O)NC(=O)c1cc2c(s1)-c1ccccc1CC2,–
–,< 1000,CCCCNC(=O)c1cc2c(s1)-c1ccccc1CC2,–
–,< 1000,CCNC(=O)c1cc2c(s1)-c1ccccc1CC2,–
–,< 2000,O=C(NS(=O)(=O)O)c1cc2c(s1)-c1ccccc1CC2,–
> 2000,–,COCC1CCCN1C(=O)c1cc2c(s1)-c1cc(F)cc(F)c1SC2 (stereo not drawn),–
–,–,CCOC(=O)c1cc2c(s1)-c1cc(F)cc(Cl)c1SC2,IC50 ([1]; given as numeric bound above the legend's classes): > 2000 nM
> 2000,–,CCOC(=O)c1cc2c(s1)-c1cccc(C#N)c1CC2,–
–,< 1000,CCOC(=O)c1cc2c(s1)-c1ccc(C)c(F)c1CC2,–
> 2000,–,CCOC(=O)c1cc2c(s1)-c1ccc(Cl)cc1CC2,–
> 2000,–,CCOC(=O)c1cc2c(s1)-c1ccc(C#N)cc1CC2,–
> 2000,–,CCOC(=O)c1cc2c(s1)-c1ccc(C)cc1CC2,–
> 2000,–,CCOC(=O)c1cc2c(s1)-c1cc(F)ccc1OC2C (stereo not drawn),–
–,–,CCOC(=O)c1cc2c(s1)-c1cc(F)ccc1OC2,"IC50 [1, 4]: > 2000 nM"
–,< 1000,COC(=O)c1cc2c(s1)-c1ccccc1OC2,–
–,< 1000,COC(=O)c1cc2c(s1)-c1ccccc1CC2,EC50 [2]: < 50 nM
> 2000,–,CC(C)(C)OC(=O)CC1CCCN1C(=O)c1cc2c(s1)-c1cc(F)cc(F)c1SC2 (stereo not drawn),–
–,–,"O=C(O)c1cc2c(s1)-c1sccc1CC2 [4,5-dihydrobenzo[1,2-b:6,5-b′]dithiophene-2-carboxylic acid]",EC50 [2]: < 1000 nM
